# Earlier results as cited in patent US20100284993A1, “Enhancing the Efficacy of Anti-Infective Therapeutics” (priority 2007, published 2010).
# Columns and labels:
# [1] = target: peptidyl prolyl isomerases of the protozoan parasite Trypanosoma cruzi (Trypanosoma cruzi, UniProt Q09734)
# [2] = set-up: unit not given here; conditions: in vivo
# [3] = in vivo
# [4] = tested on: Pseudomonas aeruginosa
# peptidyl prolyl isomerases of the protozoan parasite Trypanosoma cruzi, sequence (Q09734 30-196): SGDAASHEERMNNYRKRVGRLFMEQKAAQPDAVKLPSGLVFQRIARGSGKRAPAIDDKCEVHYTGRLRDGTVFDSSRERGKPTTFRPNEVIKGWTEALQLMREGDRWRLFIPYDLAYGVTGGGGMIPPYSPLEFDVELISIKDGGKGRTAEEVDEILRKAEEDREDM
compound,measurement,setting,value
"CC[C@@H]1/C=C(\C)[C@@H](O)[C@H](C)C[C@H](OC)[C@H]2O[C@@](O)(C(=O)C(=O)N3CCCC[C@H]3C(=O)O[C@H](/C(C)=C/[C@@H]3CC[C@@H](O)[C@H](OC)C3)[C@H](C)[C@@H](O)CC1=O)[C@H](C)C[C@@H]2OC [L-685,818]",binding preference for T. cruzi peptidyl prolyl isomerases over human FKBP,[1],preferentially binds
C[C@@H](O)[C@H]1C(=O)N2C(C(=O)O)=C(S[C@@H]3CN[C@H](C(=O)N(C)C)C3)[C@H](C)[C@H]12 [meropenem],elimination half life,[2],one
C=CC[C@@H]1/C=C(\C)C[C@H](C)C[C@H](OC)[C@H]2O[C@@](O)(C(=O)C(=O)N3CCCC[C@H]3C(=O)O[C@H](/C(C)=C/[C@@H]3CC[C@@H](O)[C@H](OC)C3)[C@H](C)[C@@H](O)CC1=O)[C@H](C)C[C@@H]2OC [FK506],distribution into protected cellular compartments in the blood,[3],72-98%
C[C@@H](O)[C@H]1C(=O)N2C(C(=O)O)=C(S[C@@H]3CN[C@H](C(=O)Nc4cccc(C(=O)O)c4)C3)[C@H](C)[C@H]12 [ertapenem],half life,[2],four
same,effectiveness against Pseudomonas aeruginosa,[4],not effective
